Target: T1, HCV NS3 helicase NS3h_1b(con1) (Hepatitis C virus genotype 1b, UniProt Q9WMX2)
T1 construct: truncated C-terminally His-tagged NS3 proteins lacking the N-terminal protease, called NS3h; His-tag (C); made in house
Assay: MBHA screen of NCI mechanistic set library at 20 μM (percent inhibition, compound interference)
Format: biochemical
Conditions: compounds at 20 μM; for Inh. (%) (Inhibition): calculated from Equation 1
In short: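 Molecular beacon-based DNA unwinding assay; compounds screened at 20 μM in triplicate, with DMSO-only negative and 500 nM dT20 positive controls. Fluorescence (ex 643/em 670 nm) was read before and 30 min after adding ATP to 1 mM. Percent inhibition came from the change relative to DMSO controls; interference from pre-ATP fluorescence versus DMSO controls.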

[1] = MBHA with DNA substrate, assay interference calculated with Equation 2
[2] = assay interference calculated with Equation 2 (fluorescence vs DMSO-only controls before ATP)

T1 sequence (Q9WMX2 1192-1657): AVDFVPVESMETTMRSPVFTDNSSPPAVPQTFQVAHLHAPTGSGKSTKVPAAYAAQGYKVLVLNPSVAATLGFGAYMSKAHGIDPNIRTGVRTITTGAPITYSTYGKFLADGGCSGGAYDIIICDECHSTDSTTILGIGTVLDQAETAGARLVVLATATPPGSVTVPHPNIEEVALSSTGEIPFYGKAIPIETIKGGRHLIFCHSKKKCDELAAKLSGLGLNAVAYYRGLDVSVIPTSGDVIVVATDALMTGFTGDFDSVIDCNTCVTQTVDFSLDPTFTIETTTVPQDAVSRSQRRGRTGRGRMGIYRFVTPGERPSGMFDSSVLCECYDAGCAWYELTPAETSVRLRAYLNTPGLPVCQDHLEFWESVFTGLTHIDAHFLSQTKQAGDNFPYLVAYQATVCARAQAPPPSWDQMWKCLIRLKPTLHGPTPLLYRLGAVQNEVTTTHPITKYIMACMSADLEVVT

SMILES: CC(C)(C)c1ccc(O)c(CN(Cc2cc(C(C)(C)C)ccc2O)C2CCCCC2)c1 [Compound 48151]
- Int.* (Ratio) (Interference) [1]: 0.98 Ratio
- Inh. (%) (Inhibition) (MBHA with DNA substrate): 2.1%

SMILES: [Cl-].c1csc(C[N+]23CN4CN(CN(C4)C2)C3)c1 [Compound 49660]
- Int.* (Ratio) (Interference) [1]: 0.93 Ratio
- Inh. (%) (Inhibition) (MBHA with DNA substrate): 21.2%

SMILES: CC[C@]1(O)C[C@@H]2CN(CCc3c([nH]c4ccccc34)[C@@](C(=O)OC)(c3cc4c(cc3OC)N(C)[C@H]3[C@@](O)(C(=O)OC)[C@H](OC(C)=O)[C@]5(CC)C=CCN6CC[C@]43[C@@H]65)C2)C1.O=S(=O)(O)O [Compound 49842]
- Inh. (%) (Inhibition) (MBHA with a DNA substrate): 9.9%
- Int.* (Ratio) (Interference) [2]: 0.98 Ratio

SMILES: [Cl][Cd][Cl] [Compound 51148]
- Int.* (Ratio) (Interference) [1]: 0.94 Ratio
- Inh. (%) (Inhibition) (MBHA with DNA substrate): 53.4%

SMILES: CN(C)[C@@H]1C(=O)C(C(N)=O)=C(O)[C@@]2(O)C(=O)C3=C(O)c4c(O)cccc4C[C@H]3C[C@@H]12 [Compound 51812]
- Int.* (Ratio) (Interference) [1]: 0.99 Ratio
- Inh. (%) (Inhibition) (MBHA with DNA substrate): −8.1%

SMILES: C[C@@H]1C[C@H]2CC[C@H](O2)[C@H](C)C(=O)O[C@@H](C)C[C@@H]2CC[C@@H](O2)[C@@H](C)C(=O)O[C@H](C)C[C@H]2CC[C@H](O2)[C@H](C)C(=O)O[C@@H](C)C[C@@H]2CC[C@@H](O2)[C@@H](C)C(=O)O1 [Compound 52141]
- Int.* (Ratio) (Interference) [1]: 0.83 Ratio
- Inh. (%) (Inhibition) (MBHA with DNA substrate): −11.6%

SMILES: COc1ccc(-c2cc(=O)c3c(OC)c(OC)c(OC)cc3o2)cc1 [Compound 53908]
- Int.* (Ratio) (Interference) [1]: 0.82 Ratio
- Inh. (%) (Inhibition) (MBHA with DNA substrate): 26.0%

SMILES: Nc1nc(-c2cccs2)cs1 [Compound 54297]
- Inh. (%) (Inhibition) (MBHA with a DNA substrate): −4.0%
- Int.* (Ratio) (Interference) [2]: 0.96 Ratio

SMILES: COc1ccc2oc(-c3ccncc3)cc(=O)c2c1 [Compound 54650]
- Int.* (Ratio) (Interference) [1]: 1.11 Ratio
- Inh. (%) (Inhibition) (MBHA with DNA substrate): 24.7%

SMILES: O=C1/C(=C/c2cccs2)Oc2ccccc21 [Compound 56544]
- Int.* (Ratio) (Interference) [1]: 0.96 Ratio
- Inh. (%) (Inhibition) (MBHA with DNA substrate): 1.5%

SMILES: COc1cccc(/C=N\NC(=O)C(C)SC(C)C(=O)N/N=C/c2cccc(OC)c2)c1 (centres unmarked) [Compound 56737]
- Int.* (Ratio) (Interference) [1]: 1.12 Ratio
- Inh. (%) (Inhibition) (MBHA with DNA substrate): −7.2%

SMILES: Cc1cc2c(C(C)C)c(O)c(O)c(C=O)c2c(O)c1-c1c(C)cc2c(C(C)C)c(O)c(O)c(C=O)c2c1O [Compound 56817]
- Int.* (Ratio) (Interference) [1]: 0.90 Ratio
- Inh. (%) (Inhibition) (MBHA with DNA substrate): −2.0%

SMILES: CO[C@@H]1[C@H](O)C[C@@H](O[C@@H]2C[C@H](Oc3cc4cc5c(c(O)c4c(O)c3C)C(=O)[C@@H](O[C@H]3C[C@@H](O[C@H]4C[C@@H](O[C@H]6C[C@](C)(O)[C@@H](OC(C)=O)[C@H](C)O6)[C@H](O)[C@@H](C)O4)[C@H](O)[C@@H](C)O3)[C@H]([C@H](OC)C(=O)[C@@H](O)[C@@H](C)O)C5)O[C@H](C)[C@@H]2OC(C)=O)O[C@@H]1C [Compound 58514]
- Int.* (Ratio) (Interference) [1]: 1.04 Ratio
- Inh. (%) (Inhibition) (MBHA with DNA substrate): 54.9%

SMILES: CCCCCCCCCCCCCCCCOCC(O)CO (centres unmarked) [Compound 59269]
- Int.* (Ratio) (Interference) [1]: 0.96 Ratio
- Inh. (%) (Inhibition) (MBHA with DNA substrate): −9.7%

SMILES: O=[n+]1c2c(n([O-])c3ccccc31)-c1cccc3cccc-2c13 [Compound 60309]
- Int.* (Ratio) (Interference) [1]: 0.93 Ratio
- Inh. (%) (Inhibition) (MBHA with DNA substrate): 13.6%

SMILES: CC12C(=O)OC(=O)C1(C)C1CCC2O1 (centres unmarked) [Compound 61805]
- Int.* (Ratio) (Interference) [1]: 0.95 Ratio
- Inh. (%) (Inhibition) (MBHA with DNA substrate): −0.5%

SMILES: CC[C@@]12CCCN3CC[C@]4(c5cccc(OC)c5N(C(C)=O)[C@@H]4CC1)[C@H]32 [Compound 61811]
- Int.* (Ratio) (Interference) [1]: 0.91 Ratio
- Inh. (%) (Inhibition) (MBHA with DNA substrate): −2.8%

SMILES: CC(C)C(C)C=CC(C)C1CCC2C3=CC=C4CC(O)CCC4(C)C3CCC21C (centres unmarked) [Compound 62791]
- Int.* (Ratio) (Interference) [1]: 0.93 Ratio
- Inh. (%) (Inhibition) (MBHA with DNA substrate): −9.1%

SMILES: CS(=O)(=O)c1nc(N)nc2nc[nH]c12 [Compound 63446]
- Int.* (Ratio) (Interference) [1]: 0.76 Ratio
- Inh. (%) (Inhibition) (MBHA with DNA substrate): 4.3%

SMILES: N#Cc1cn([C@@H]2O[C@H](CO)[C@@H](O)[C@H]2O)c2ncnc(N)c12 [Compound 63701]
- Inh. (%) (Inhibition) (MBHA with a DNA substrate): −3.8%
- Int.* (Ratio) (Interference) [2]: 0.98 Ratio

SMILES: Cl.Nc1ccn([C@@H]2O[C@H](CO)[C@@H](O)[C@@H]2O)c(=O)n1 [Compound 63878]
- Inh. (%) (Inhibition) (MBHA with a DNA substrate): 8.3%
- Int.* (Ratio) (Interference) [2]: 0.89 Ratio

SMILES: Nc1ncnc2c1ncn2[C@@H]1O[C@H](CO)C[C@H]1O [Compound 63984]
- Int.* (Ratio) (Interference) [1]: 1.11 Ratio
- Inh. (%) (Inhibition) (MBHA with DNA substrate): −0.8%

SMILES: CC(C)CCCCCCCCCCCCC(=O)NCC(=O)N[C@@H]1[C@@H](O)[C@H](O)[C@@H](Nc2ncnc3nc[nH]c23)O[C@H]1[C@@H](O)CO [Compound 65104]
- Inh. (%) (Inhibition) (MBHA with a DNA substrate): −22.3%
- Int.* (Ratio) (Interference) [2]: 1.01 Ratio

SMILES: NC(=O)c1cn(C2OC(CO)C(O)C2O)c2ncnc(N)c12 (centres unmarked) [Compound 65346]
- Int.* (Ratio) (Interference) [1]: 0.92 Ratio
- Inh. (%) (Inhibition) (MBHA with DNA substrate): 0.0%

SMILES: CC1OC1C(=O)C1(O)C(C)C(O)C23OC2(C(O)c2c(O)cccc2C3=O)C1O (centres unmarked) [Compound 65380]
- Inh. (%) (Inhibition) (MBHA with a DNA substrate): 11.3%
- Int.* (Ratio) (Interference) [2]: 1.03 Ratio

SMILES: NC(=O)C#CC(N)=O [Compound 65381]
- Int.* (Ratio) (Interference) [1]: 0.96 Ratio
- Inh. (%) (Inhibition) (MBHA with DNA substrate): 14.1%

SMILES: OC[C@H]1O[C@@H](n2cnc3cncnc32)[C@H](O)[C@@H]1O [Compound 65423]
- Int.* (Ratio) (Interference) [1]: 1.12 Ratio
- Inh. (%) (Inhibition) (MBHA with DNA substrate): 2.0%

SMILES: O=C(Nc1ccc2c(c1)oc(=O)c1ccccc12)C(Cl)Cl [Compound 65937]
- Int.* (Ratio) (Interference) [1]: 1.01 Ratio
- Inh. (%) (Inhibition) (MBHA with DNA substrate): −9.8%

SMILES: CCCCC(/C=N/N=C(N)N)CC.Cc1cc(O)c(C(C)C)cc1S(=O)(=O)O [Compound 66300]
- Int.* (Ratio) (Interference) [1]: 1.21 Ratio
- Inh. (%) (Inhibition) (MBHA with DNA substrate): 2.2%

SMILES: CCCc1c(Cl)nc(Cl)nc1Cl [Compound 66914]
- Int.* (Ratio) (Interference) [1]: 0.91 Ratio
- Inh. (%) (Inhibition) (MBHA with DNA substrate): −0.8%

SMILES: CC[C@]1(O)C[C@H]2CN(CCc3c([nH]c4ccccc34)[C@@](C(=O)OC)(c3cc4c(cc3OC)N(C=O)[C@H]3[C@@](O)(C(=O)OC)[C@H](OC(C)=O)[C@]5(CC)C=CCN6CC[C@]43[C@@H]65)C2)C1 [Compound 67574]
- Int.* (Ratio) (Interference) [1]: 0.96 Ratio
- Inh. (%) (Inhibition) (MBHA with DNA substrate): −16.1%

SMILES: COc1cc(-c2cc(=O)c3c(OC)c(OC)c(OC)c(OC)c3o2)cc(OC)c1OC [Compound 67580]
- Inh. (%) (Inhibition) (MBHA with a DNA substrate): −27.4%
- Int.* (Ratio) (Interference) [2]: 1.12 Ratio

SMILES: O=C(O)c1ccccc1-c1ccccc1C(=O)Nc1ccc2c(c1)Cc1ccccc1-2 [Compound 67690]
- Int.* (Ratio) (Interference) [1]: 1.16 Ratio
- Inh. (%) (Inhibition) (MBHA with DNA substrate): −9.5%

SMILES: COc1cc(C[C@H]2c3cc(OC)c(OC)cc3CCN2C)c(Oc2cc3c(cc2OC)-c2c(OC)c(OC)cc4c2[C@H](C3)N(C)CC4)cc1OC [Compound 68075]
- Int.* (Ratio) (Interference) [1]: 1.02 Ratio
- Inh. (%) (Inhibition) (MBHA with DNA substrate): 23.1%

SMILES: [O-][n+]1ccccc1[S-].[O-][n+]1ccccc1[S-].[Zn+2] [Compound 68093]
- Int.* (Ratio) (Interference) [1]: 0.90 Ratio
- Inh. (%) (Inhibition) (MBHA with DNA substrate): 19.5%

SMILES: COc1ccc2[nH]c3c(C)c4ccncc4c(C)c3c2c1 [Compound 69187]
- Int.* (Ratio) (Interference) [1]: 0.22 Ratio
- Inh. (%) (Inhibition) (MBHA with DNA substrate): 99.2%

SMILES: Cl.Cl.Cl.Cl.NCCCNCCCCNCCCN [Compound 69852]
- Int.* (Ratio) (Interference) [1]: 1.06 Ratio
- Inh. (%) (Inhibition) (MBHA with DNA substrate): −8.6%

SMILES: Nc1ncnc2c1ncn2C1OC(CO)C(O)C1O (centres unmarked) [Compound 70422]
- Int.* (Ratio) (Interference) [1]: 0.85 Ratio
- Inh. (%) (Inhibition) (MBHA with DNA substrate, 20 µM): 33.9%

SMILES: COC(=O)C1c2cc3c(c(O)c2C(OC2OC(C)C(OC)C(C)(OC)C2OC)CC1(C)O)C(=O)c1c(O)cc2c(c1C3=O)OC1OC2(C)C(O)C(N(C)C)C1O (centres unmarked) [Compound 70845]
- Int.* (Ratio) (Interference) [1]: 0.59 Ratio
- Inh. (%) (Inhibition) (MBHA with DNA substrate): 84.4%

SMILES: Cc1cc2c(c3oc(C4(C)OC4C4OC4C)cc(=O)c13)C(=O)c1c(O)c(C3CC(C)(N(C)C)C(O)C(C)O3)cc(C3CC(N(C)C)C(O)C(C)O3)c1C2=O (centres unmarked) [Compound 70929]
- Int.* (Ratio) (Interference) [1]: 0.20 Ratio
- Inh. (%) (Inhibition) (MBHA with DNA substrate): 32.1%

SMILES: COc1ccc(OC)c(-c2cc(=O)c3c(OC)c(OC)c(OC)c(OC)c3o2)c1 [Compound 71300]
- Int.* (Ratio) (Interference) [1]: 1.12 Ratio
- Inh. (%) (Inhibition) (MBHA with DNA substrate): 2.2%

SMILES: Nc1nc(N)c(-c2cccc(C(F)(F)F)c2)c(Cc2cccc(C(F)(F)F)c2)n1 [Compound 71669]
- Int.* (Ratio) (Interference) [1]: 1.06 Ratio
- Inh. (%) (Inhibition) (MBHA with DNA substrate): 12.4%

SMILES: Nc1nc(=S)c2ncn([C@@H]3C[C@H](O)[C@@H](CO)O3)c2[nH]1 [Compound 71851]
- Inh. (%) (Inhibition) (MBHA with a DNA substrate): 10.2%
- Int.* (Ratio) (Interference) [2]: 0.94 Ratio
